Measured values taken from patent US9604960B2, “Aryl, heteroaryl, and heterocycle substituted tetrahydroisoquinolines and use thereof” (Albany Molecular Research, Inc., priority 2009, dated 2017).

How the values were obtained:
[1] = target: hSERT (Homo sapiens (Human), UniProt P31645); test: SERT radioligand binding assay ([125I]RTI-55); conditions: (+)-enantiomers; membranes of HEK-293 cells expressing hSERT
Method: The medium was removed from the flasks and the cells rinsed with HBSS without Ca and without Mg. The cells were then incubated for 5-10 minutes in 10 mM Tris-Cl, pH 7.5, 5 mM EDTA before the cells were lifted with a combination of pipetting and scraping, as needed. The cell suspension was collected into centrifuge bottles and homogenized for 30 seconds with a Polytron homogenizer. The suspension was centrifuged for 30 minutes at 32,000×g, 4° C. The supernatant was decanted and the pellet resuspended and homogenized in 50 mM Tris-Cl, pH 7.5, 1 mM EDTA for 10 seconds. The suspension was then centrifuged again for 30 minutes at 32,000×g, 4° C. The supernatant was decanted and the pellet resuspended in 50 mM Tris-Cl, pH 7.5, 1 mM EDTA and briefly homogenized. A Bradford assay (Bio-rad) was performed and the membrane preparation diluted to 2 mg/ml with 50 mM Tris-Cl, pH 7.5, 1 mM EDTA. Aliquots were prepared, and then frozen and stored at −80° C.
Compounds were dissolved in 100% DMSO at a concentration 100 times the desired highest assay concentration, serially diluted 1:3 in 100% DMSO, and 0.4 μl/well of each solution was dispensed to a Nunc polypropylene, round bottom, 384-well plate. […] The plates were air-dried overnight, 12 μl/well of MicroScint scintillation fluid added, and the plates counted in a Trilux. […]

[2] = target: hDAT (Homo sapiens (Human), UniProt Q01959); test: DAT radioligand binding assay ([125I]RTI-55); conditions: (+)-enantiomers; membranes of HEK-293 cells expressing hDAT
Method: Recombinant HEK-293 cells expressing either the hSERT, hDAT, or hNET proteins were harvested from T-175 flasks as follows. The medium was removed from the flasks and the cells rinsed with HBSS without Ca and without Mg. The cells were then incubated for 5-10 minutes in 10 mM Tris-Cl, pH 7.5, 5 mM EDTA before the cells were lifted with a combination of pipetting and scraping, as needed. The cell suspension was collected into centrifuge bottles and homogenized for 30 seconds with a Polytron homogenizer. The suspension was centrifuged for 30 minutes at 32,000×g, 4° C. The supernatant was decanted and the pellet resuspended and homogenized in 50 mM Tris-Cl, pH 7.5, 1 mM EDTA for 10 seconds. […]
Compounds were dissolved in 100% DMSO at a concentration 100 times the desired highest assay concentration, serially diluted 1:3 in 100% DMSO, and 0.4 μl/well of each solution was dispensed to a Nunc polypropylene, round bottom, 384-well plate. […] The plates were air-dried overnight, 12 μl/well of MicroScint scintillation fluid added, and the plates counted in a Trilux.
The raw data was normalized to percent inhibition using control wells defining 0% (DMSO only) and 100% (selective inhibitor) inhibition which were run on each plate. […] The radioligand concentration chosen for each assay corresponds to the Kd concentration determined through saturation binding analysis for each assay.

[3] = system: Male Swiss Webster mice; test: Mouse tail suspension assay; type: in vivo; conditions: acute administration, immobility
Method: Male Swiss Webster mice were housed 3-4 per cage in rooms maintained at a constant temperature (21-23° C.) and humidity (50±10%) on a 12-hour light/dark cycle. Animals had ad libitum access to water and food throughout studies. On the day of testing, they were brought into the testing room and allowed to acclimate for one hour. To begin testing, the tail was attached to a piece of tape which is then attached to a hook on the ceiling of a sound-attenuated chamber. Immobility was automatically recorded using the Med Associates software. Compounds were administered acutely at a fixed pretreatment interval before session.

Chain of hSERT (P31645 whole entry): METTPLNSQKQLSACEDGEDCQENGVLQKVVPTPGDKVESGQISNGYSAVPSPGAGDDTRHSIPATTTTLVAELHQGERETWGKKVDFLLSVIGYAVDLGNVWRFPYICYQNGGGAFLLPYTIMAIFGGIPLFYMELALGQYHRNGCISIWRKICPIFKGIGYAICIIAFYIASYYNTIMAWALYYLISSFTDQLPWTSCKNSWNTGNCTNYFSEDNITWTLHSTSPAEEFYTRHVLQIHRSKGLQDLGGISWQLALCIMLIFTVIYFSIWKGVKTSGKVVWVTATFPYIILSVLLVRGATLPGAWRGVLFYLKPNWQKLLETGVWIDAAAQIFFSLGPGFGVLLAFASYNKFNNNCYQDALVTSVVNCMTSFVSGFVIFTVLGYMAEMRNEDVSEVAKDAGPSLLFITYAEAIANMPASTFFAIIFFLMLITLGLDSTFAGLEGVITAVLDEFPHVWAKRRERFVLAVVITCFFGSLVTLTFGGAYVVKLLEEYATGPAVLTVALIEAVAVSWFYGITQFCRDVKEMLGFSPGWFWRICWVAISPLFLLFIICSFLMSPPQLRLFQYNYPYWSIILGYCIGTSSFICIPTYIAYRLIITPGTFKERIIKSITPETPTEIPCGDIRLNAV
Chain of hDAT (Q01959 whole entry): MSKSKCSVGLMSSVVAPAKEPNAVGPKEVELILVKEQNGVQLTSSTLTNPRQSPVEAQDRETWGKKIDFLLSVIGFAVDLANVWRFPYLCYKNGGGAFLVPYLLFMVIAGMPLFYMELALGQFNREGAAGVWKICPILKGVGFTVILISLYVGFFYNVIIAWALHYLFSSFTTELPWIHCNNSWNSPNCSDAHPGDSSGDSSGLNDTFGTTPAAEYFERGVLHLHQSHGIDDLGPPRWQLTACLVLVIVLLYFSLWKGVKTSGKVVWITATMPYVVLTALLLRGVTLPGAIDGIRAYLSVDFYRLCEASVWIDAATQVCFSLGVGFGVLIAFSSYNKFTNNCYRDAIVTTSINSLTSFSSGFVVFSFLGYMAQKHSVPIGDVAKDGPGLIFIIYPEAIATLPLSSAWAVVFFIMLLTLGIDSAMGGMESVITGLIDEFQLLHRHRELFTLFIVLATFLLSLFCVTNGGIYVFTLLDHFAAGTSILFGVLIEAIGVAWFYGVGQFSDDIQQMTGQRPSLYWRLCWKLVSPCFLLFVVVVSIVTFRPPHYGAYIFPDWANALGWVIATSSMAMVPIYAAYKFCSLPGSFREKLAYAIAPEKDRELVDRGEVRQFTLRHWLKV

Row | IC50 [1] | IC50 [2] | SMILES | minimum effective dose in the mouse tail suspension study [3]
1 | 26 nM | 28 nM | CC1(C)NCC(c2ccc(Cl)c(Cl)c2)c2ccc(-c3ccc(C(F)(F)F)nn3)cc21 (single isomer, unassigned) [Example 10, 4-(3,4-dichlorophenyl)-7-(6-(trifluoromethyl)pyridazin-3-yl)-1,1-dimethyl-1,2,3,4-tetrahydroisoquinoline] | 
2 |  |  | Clc1ccc(C2CNCc3cc(-c4ccc5ncnn5c4)ccc32)cc1Cl (stereo not drawn) [Example 36, 7-([1,2,4]triazolo[1,5-a]pyridin-6-yl)-4-(3,4-dichlorophenyl)-1,2,3,4-tetrahydroisoquinoline] | 10 mg/kg
